Source: patent US6228363A, “Peptides for the treatment of systemic lupus erythematosus” (Hadasit Medical Research Services & Development Company Ltd., priority 1997, dated 2001)

Experiments:
[1] = system: C72 murine anti-DNA antibody; experiment: Competitive inhibition of C72 binding to 5200, ELISA; conditions: antibody incubated with inhibitor before ELISA
Description: Competitive Inhibition Assays:
In competitive inhibition assays, the antibodies were incubated with various concentrations of the inhibitor (for example: peptide, DNA, heparin) or with DNase for 45 minutes at room temperature and the remaining binding was then evaluated by ELISA as described heretofore.
% inhibition was computed as
O.D. binding without inhibitor-O.D. binding with inhibitor×100=%
inhibition O.D. binding without inhibitor
The binding of C72 to 5200 was tested before and after incubation with 5200, R38, R18, Heparin, DNA and DNase. […] The percent inhibition is the percent reduction of the O.D. after incubation with the inhibiting agent.

[2] = system: murine urinary immunoglobulins; experiment: Binding of murine urinary immunoglobulins, direct binding ELISA; parameters: species or system mice; conditions: pooled urine
Description: (§1) Wells were coated with 10 μg/ml of the peptides, blocked with 1% BSA (bovine serum albumin) in PBS (pH 7,4), reacted with appropriately diluted serum or urine samples or monoclonal antibodies, incubated with anti-human or anti-mouse immunoglobulin enzyme conjugated to alkaline phosphatase and detected by addition of substrate (Sigma 100 Phosphatase Substrate Tablets) and color development using an Organon Teknika Microwell System spectrometer at wavelength of 405 nm.
Thus, pooled urine from at least 5 mice (either MRL/1pr/1pr or control mice, e.g. BALB/c) was added to wells coated with R38' (5200), R18 or DNA as described above and bound 5200 assayed by ELISA.
Binding of Murine Urinary Immunoglobulins To 5200
Each group is comprised of pooled urine.

[3] = system: C72 murine anti-DNA antibody; experiment: Direct binding ELISA of C72 to laminin peptides; conditions: for binding of C72 murine anti-DNA antibody to peptide (FIG. 1): C72 conditioned medium in various dilutions in PBS; for C72 Binding: O.D. in a direct binding ELISA test after one (1) hour
Description: The C72 murine anti-DNA antibody has been derived from (NZBxNZW)F1 lupus mice by the hybridoma technique as described in Eilat D. et al J. Immunol. (1991) 147 361-368. The monoclonal anti-DNA antibodies DIL6 and B3 were derived from lupus patients by hybridoma technique as described in Ehrenstein M. R. et al J. Clin. Invest. (1994) 93 1787-1799 and Ehrenstein M. R. et al Kidney Inter. (1995) 48 705-711.
Anti-Peptide (Direct Binding) ELISA:
as §1
The interaction of the C72 murine anti-DNA antibody with laminin peptides was analyzed by ELISA as described above. The C72 conditioned medium was diluted in PBS in various dilutions.
The peptides of the present invention were tested for their ability to bind directly with C72 murine anti-DNA antibodies and B3 human anti-DNA antibodies according to the methods described hereinabove.

Question: What does the source list for DNA [reference compound]?
Answer: inhibition of the binding of C72 to 5200 (FIG. 2) [1]: inhibition; Binding of murine urinary immunoglobulins to antigen ([2]; BALB/c mice): U.D.; Binding of murine urinary immunoglobulins to antigen ([2]; MRL/lpr/lpr mice): U.D.

Question: With DNase as the substance, how does the “inhibition of the binding of C72 to 5200 (FIG. 2)” value [1] read?
Answer: The value was “not”.

Question: Which “binding of C72 murine anti-DNA antibody to peptide (FIG. 1)” value [3] does the source give for “KONCLSSRASFRGCVRNLRLSR (PHTHSTSADTNDPIYVGGYPAH; UniProt P19137 3011-3032, looked up, fragment) [Peptide R30, mouse laminin α chain residues 3011-3032]” here?
Answer: Its value is “binding”.

Question: What about the “C72 Binding” value [3] of the same substance?
Answer: Its value is 0.75 O.D.

Question: “RPVRHAQCRVCDGNSTNPRERH [Peptide R18, peptide from the N-terminal of mouse laminin α chain, residues 42-63]” was tested. Which “binding of C72 murine anti-DNA antibody to peptide (FIG. 1)” value [3] did it give?
Answer: The value was “not”.

Question: And the “C72 Binding” value [3]?
Answer: Its value is 0.01 O.D.

Question: And the “Binding of murine urinary immunoglobulins to antigen” value ([2]; BALB/c mice)?
Answer: Its value is “U.D”.

Question: And the “Binding of murine urinary immunoglobulins to antigen” value ([2]; MRL/lpr/lpr mice)?
Answer: Its value is “U.D”.

Question: Which “inhibition of the binding of C72 to 5200 (FIG. 2)” value [1] does the source give for heparin here?
Answer: The value was “inhibition”.
